Assay results from PMC3770947, “A cyclic GMP-dependent signalling pathway regulates bacterial phytopathogenesis” (The EMBO Journal, 2013).

What was measured:
[1] = molecular target: T1, CYC domain of XC_0250 (CYCHis6) (Xanthomonas campestris, UniProt Q8PDU5); assay: guanylyl cyclase assay, reverse-phase HPLC and mass spectrometry; format: biochemical; settings: 0.5 mM GTP, 10 mM MnCl2, pH 8.0, 25°C
T1 construct: gene XCC0240; single band of 21 kDa

full-length XC_0249 = molecular target: T2, full-length XC_0249 (Xanthomonas campestris, UniProt Q8PDU6); assay: diguanylate cyclase assay, HPLC and mass spectrometry; format: biochemical; settings: 150 μM GTP, 10 mM MgCl2, pH 7.6, 60 min
T2 construct: gene XCC0239; full-length purified protein; cNMP domain plus GGDEF domain
T2 sequence (Q8PDU6 entry or part of it): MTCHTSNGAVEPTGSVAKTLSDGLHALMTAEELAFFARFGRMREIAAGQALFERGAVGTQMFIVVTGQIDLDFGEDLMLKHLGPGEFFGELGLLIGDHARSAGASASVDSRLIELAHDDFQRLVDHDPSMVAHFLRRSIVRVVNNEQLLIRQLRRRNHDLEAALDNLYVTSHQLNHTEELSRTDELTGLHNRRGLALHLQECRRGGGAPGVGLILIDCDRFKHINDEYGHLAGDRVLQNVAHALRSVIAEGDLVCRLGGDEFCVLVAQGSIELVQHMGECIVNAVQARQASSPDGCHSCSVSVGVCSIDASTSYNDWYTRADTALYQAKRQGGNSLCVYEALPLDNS

[2] = molecular target: cNMP domain of XC_0249 (Xanthomonas campestris pv. campestris (Xcc) strain 8004); assay: crystal structure; XC_0249 cNMP domain with cyclic GMP bound, resolution 2.2 Å

T1 sequence (Q8PDU5 entry or part of it): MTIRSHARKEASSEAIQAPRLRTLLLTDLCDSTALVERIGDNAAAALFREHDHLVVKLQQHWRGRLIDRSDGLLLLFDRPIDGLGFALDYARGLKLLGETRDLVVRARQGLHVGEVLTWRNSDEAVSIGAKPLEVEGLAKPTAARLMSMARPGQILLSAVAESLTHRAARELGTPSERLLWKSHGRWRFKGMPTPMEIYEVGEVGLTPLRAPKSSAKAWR

Molecule | guanylyl cyclase assay, reverse-phase HPLC and mass spectrometry [1] | other results
Nc1nc2c(ncn2[C@@H]2O[C@H](COP(=O)(O)OP(=O)(O)OP(=O)(O)O)[C@@H](O)[C@H]2O)c(=O)[nH]1 [GTP] | This protein had guanylate cyclase activity, converting GTP to cyclic GMP | 
Nc1nc2c(ncn2[C@@H]2O[C@@H]3COP(=O)(O)O[C@H]3[C@H]2O)c(=O)[nH]1 [cyclic GMP] | This protein had guanylate cyclase activity, converting GTP to cyclic GMP | 
Nc1nc2c(ncn2[C@@H]2O[C@@H]3COP(=O)(O)O[C@H]4[C@@H](O)[C@H](n5cnc6c(=O)[nH]c(N)nc65)O[C@@H]4COP(=O)(O)O[C@H]3[C@H]2O)c(=O)[nH]1 [cyclic di-GMP] |  | diguanylate cyclase assay, HPLC and mass spectrometry (full-length XC_0249): The identity of cyclic di-GMP as a product was confirmed by mass spectrometry
cNMP domain of XC_0249 (domain or fragment) |  | stoichiometry N [2]: 2
